We go through five compounds from patent publication EP0490380B1, “Use of N,N'-bis 3-(ethylamino)propyl -1,7-heptanediamine and a cytotoxic agent” (MERRELL PHARMACEUTICALS INC., priority 1990, dated 1992).

Read-outs that look alike come from different tables or passages of the source. Marks after values point to notes of the source that are not given here.

The subject of assay [1] is MCA38 (mouse colon adenocarcinoma). In words: Cell viability by colorimetric MTT assay after 96 hour incubation, MCA38 cells. It counts as cell-based. The conditions noted are these: for IC50: Mus musculus, 96 h. As to the method:
(§1) In addition, the Fractional Inhibitory Concentration (FIC) for the various treatments was calculated. FIC's are an accepted measurement of synergy [Middleton and Westmacott, J.Antimicrobial Chemother. […] For two interacting drugs, the sum of the FIC's of each of the treatments expresses the extent of the synergistic interaction.
(§2) Where FIC is less than 1, there is synergy between the two treatments, where FIC is 1, there is no synergy (additive effect). The smaller the value for FIC, the greater the synergistic interaction.
Background: Formazan colour is commonly taken as a measure of viable cells.

For another assay, the system named is HeLa cells. The experiment in a line: Cell viability by colorimetric MTT assay after 96 hour incubation, HeLa cells. The conditions noted are these: for IC50: Homo sapiens, HeLa. It counts as cell-based. As to the method:
as §1, §2

The test system of a further assay is L1210 Leukemia. In words: Conjunctive therapy of L1210 leukemia in vivo (survival). The note with it: BDF1 male mice, 10^5 L1210 cells i.p. day 0, control 7.6±0.5. As to the method:
Groups of 5 mice (BDF1 male) were inoculated i.p. with 10^5 L1210 leukemia cells on day 0. Vinblastine was administered at 0.5 mg/kg, i.p., on day 3. The compound N,N'-bis(3-(ethylamino) propyl]-1,7-heptanediamine was administered at 5 mg/kg, every 3 hours, 4 times per day, on days 4 and 5. Control group received no treatment after inoculation. Relative survival time was determined and expressed as % T/C (mean survival time treated/mean survival time control x 100). The results of these studies are presented in Table 1. Table 1

Turning to `COc1cccc2c1C(=O)c1c(O)c3c(c(O)c1C2=O)C[C@@](O)(C(=O)CO)C[C@@H]3O[C@H]1C[C@H](N)[C@H](O)[C@H](C)O1` [Adriamycin, adriamycin], the IC50 was 7.9 ng/mL in assay [1] (MCA 38 cells, 28,314 at 0 µg/mL (adriamycin alone), read-out: IC50 Adriamycin); 7.5 ng/mL in assay [1] (MCA 38 cells, 28,314 at 0.39 µg/mL, read-out: IC50 Adriamycin); 7.3 ng/mL in assay [1] (MCA 38 cells, 28,314 at 0.78 µg/mL, read-out: IC50 Adriamycin); 7 ng/mL in assay [1] (MCA 38 cells, 28,314 at 1.563 µg/mL, read-out: IC50 Adriamycin); 6.3 ng/mL in assay [1] (MCA 38 cells, 28,314 at 3.125 µg/mL, read-out: IC50 Adriamycin); 2.5 ng/mL in assay [1] (MCA 38 cells, 28,314 at 6.25 µg/mL, read-out: IC50 Adriamycin). The IC50 in assay [1] (MCA 38 cells, 28,314 at 12.5 µg/mL, read-out: IC50 Adriamycin) came out at 1.8 ng/mL; in the assay with HeLa cells (96 h, 28,314 at 0 µg/mL (adriamycin alone), read-out: IC50 Adriamycin), 8.6 ng/mL; with HeLa cells (96 h, 28,314 at 0.2 µg/mL, read-out: IC50 Adriamycin) it was 6.7 ng/mL; in the assay with HeLa cells (96 h, 28,314 at 0.39 µg/mL, read-out: IC50 Adriamycin) it was 5.8 ng/mL; in the assay on HeLa cells (96 h, 28,314 at 0.78 µg/mL, read-out: IC50 Adriamycin) it was 4.8 ng/mL; in the assay on HeLa cells (96 h, 28,314 at 1.5625 µg/mL, read-out: IC50 Adriamycin), 1.5 ng/mL.
On to `Nc1ccn([C@@H]2O[C@H](CO)[C@@H](O)[C@@H]2O)c(=O)n1` [AraC, cytarabine], for which the IC50 in assay [1] (MCA 38 cells, 28,314 at 0 µg/mL (AraC alone), read-out: IC50 AraC) is 660 ng/mL; in assay [1] (MCA 38 cells, 28,314 at 0.1563 µg/mL, read-out: IC50 AraC), 596 ng/mL; in assay [1] (MCA 38 cells, 28,314 at 0.3125 µg/mL, read-out: IC50 AraC), 488 ng/mL; in assay [1] (MCA 38 cells, 28,314 at 0.625 µg/mL, read-out: IC50 AraC) it was 360 ng/mL; in assay [1] (MCA 38 cells, 28,314 at 1.25 µg/mL, read-out: IC50 AraC) it was 230 ng/mL; in assay [1] (MCA 38 cells, 28,314 at 2.5 µg/mL, read-out: IC50 AraC) it was 71 ng/mL. The IC50 turned out to be 1020 ng/mL in the assay with HeLa cells (96 h, 28,314 at 0 µg/mL (AraC alone), read-out: IC50 AraC); 630 ng/mL in the assay with HeLa cells (96 h, 28,314 at 0.1563 µg/mL, read-out: IC50 AraC); 600 ng/mL in the assay on HeLa cells (96 h, 28,314 at 0.3125 µg/mL, read-out: IC50 AraC); 530 ng/mL in the assay with HeLa cells (96 h, 28,314 at 0.625 µg/mL, read-out: IC50 AraC); 370 ng/mL in the assay with HeLa cells (96 h, 28,314 at 1.25 µg/mL, read-out: IC50 AraC); 350 ng/mL with HeLa cells (96 h, 28,314 at 2.5 µg/mL, read-out: IC50 AraC). The IC50 with HeLa cells (96 h, 28,314 at 5 µg/mL, read-out: IC50 AraC) was determined as 220 ng/mL; in the assay on HeLa cells (96 h, 28,314 at 10 µg/mL, read-out: IC50 AraC), 150 ng/mL; in the assay on HeLa cells (96 h, 28,314 at 20 µg/mL, read-out: IC50 AraC), 140 ng/mL; in the assay on HeLa cells (96 h, 28,314 at 40 µg/mL, read-out: IC50 AraC) it was 140 ng/mL; in the assay with HeLa cells (96 h, 28,314 at 80 µg/mL, read-out: IC50 AraC), 140 ng/mL.
In the case of `N.N.[Cl][Pt][Cl]` [Cisplatin], the “IC50 Cisplatin” value in assay [1] (MCA 38 cells, 28,314 at 0 µg/mL (cisplatin alone)) is reported as 0.847 µg/mL; in assay [1] (MCA 38 cells, 28,314 at 0.2 µg/mL), 0.58 µg/mL; in assay [1] (MCA 38 cells, 28,314 at 0.39 µg/mL), 0.387 µg/mL; in assay [1] (MCA 38 cells, 28,314 at 0.78 µg/mL), 0.376 µg/mL; in assay [1] (MCA 38 cells, 28,314 at 1.56 µg/mL), 0.276 µg/mL; in assay [1] (MCA 38 cells, 28,314 at 3.125 µg/mL) it was 0.177* µg/mL. Also, the “IC50 Cisplatin” value in assay [1] (MCA 38 cells, 28,314 at 6.25 µg/mL) came out at 0.165 µg/mL; in assay [1] (MCA 38 cells, 28,314 at 12.5 µg/mL), 0.053 µg/mL; in the assay with HeLa cells (28,314 at 0 µg/mL (cisplatin alone)), 0.359 µg/mL; in the assay on HeLa cells (28,314 at 0.39 µg/mL), 0.336 µg/mL; in the assay with HeLa cells (28,314 at 0.78 µg/mL), 0.276 µg/mL; with HeLa cells (28,314 at 1.563 µg/mL), 0.186 µg/mL. The “IC50 Cisplatin” value in the assay with HeLa cells (28,314 at 3.125 µg/mL) was 0.130 µg/mL; with HeLa cells (28,314 at 6.25 µg/mL), 0.088 µg/mL; in the assay with HeLa cells (28,314 at 12.5 µg/mL), 0.074* µg/mL; in the assay on HeLa cells (28,314 at 25 µg/mL) it was 0.068 µg/mL; in the assay with HeLa cells (28,314 at 50 µg/mL), 0.068 µg/mL; in the assay with HeLa cells (28,314 at 100 µg/mL), 0.057 µg/mL.
As for `CCNCCCNCCCCCCCNCCCNCC` [Compound 28,314, N,N'-Bis[3-(ethylamino)propyl]-1,7-heptanediamine], in the assay on L1210 Leukemia (28,314 5 mg/kg every 3 hours, 4 times per day (20 mg/Kg/day), days 4,5), the “Mean Survival Time” value came out at 12.6 ± 0.9 days. Also, the IC50 in assay [1] (MCA 38 cells, Table 2 (cisplatin series), read-out: IC50 28,314 alone) is 17700 ng/mL; in assay [1] (MCA 38 cells, Table 3 (adriamycin series), read-out: IC50 28,314 alone), 25000 ng/mL; in assay [1] (MCA 38 cells, Table 4 (AraC series), read-out: IC50 28,314 alone), 3540 ng/mL; in assay [1] (MCA 38 cells, Table 5 (vinblastine series), read-out: IC50 28,314 alone) it was 10000 ng/mL; in the assay on HeLa cells (96 h, Table 6 (cisplatin series), read-out: IC50 28,314 alone), approximately 200000 ng/mL; in the assay on HeLa cells (96 h, Table 7 (adriamycin series), read-out: IC50 28,314 alone), 1590 ng/mL. Besides, the IC50 in the assay on HeLa cells (96 h, Table 8 (AraC series), read-out: IC50 28,314 alone) is approximately 160000 ng/mL.
Regarding `CC[C@]1(O)C[C@@H]2CN(CCc3c([nH]c4ccccc34)[C@@](C(=O)OC)(c3cc4c(cc3OC)N(C)[C@H]3[C@@](O)(C(=O)OC)[C@H](OC(C)=O)[C@]5(CC)C=CCN6CC[C@]43[C@@H]65)C2)C1` [Vinblastine, vinblastine], the “Mean Survival Time” value with L1210 Leukemia (Vinblastine 0.5 mg/kg i.p. day 3) was found to be 10.0 ± 0.7 days. For the same compound, the IC50 in assay [1] (MCA 38 cells, 28,314 at 0 µg/mL (vinblastine alone), read-out: IC50 Vinblastin) stood at 59.5 ng/mL; in assay [1] (MCA 38 cells, 28,314 at 0.1563 µg/mL, read-out: IC50 Vinblastin) it was 54.8 ng/mL; in assay [1] (MCA 38 cells, 28,314 at 0.3125 µg/mL, read-out: IC50 Vinblastin), 43 ng/mL; in assay [1] (MCA 38 cells, 28,314 at 0.625 µg/mL, read-out: IC50 Vinblastin), 33 ng/mL; in assay [1] (MCA 38 cells, 28,314 at 1.25 µg/mL, read-out: IC50 Vinblastin), 25 ng/mL; in assay [1] (MCA 38 cells, 28,314 at 2.5 µg/mL, read-out: IC50 Vinblastin) it was 15 ng/mL. For the same compound, the IC50 was determined as 3 ng/mL in assay [1] (MCA 38 cells, 28,314 at 5.0 µg/mL, read-out: IC50 Vinblastin); 1.6 ng/mL in the assay with HeLa cells (96 h, 28,314 at 0 µg/mL (vinblastine alone), read-out: IC50 Vinblastin); 1.33 ng/mL with HeLa cells (96 h, 28,314 at 0.1563 µg/mL, read-out: IC50 Vinblastin); 1.33 ng/mL in the assay with HeLa cells (96 h, 28,314 at 0.3125 µg/mL, read-out: IC50 Vinblastin); 1.19 ng/mL in the assay with HeLa cells (96 h, 28,314 at 0.625 µg/mL, read-out: IC50 Vinblastin); 1.17 ng/mL in the assay on HeLa cells (96 h, 28,314 at 1.25 µg/mL, read-out: IC50 Vinblastin). Further, the IC50 came out at 0.63 ng/mL with HeLa cells (96 h, 28,314 at 2.5 µg/mL, read-out: IC50 Vinblastin); 0.24 ng/mL in the assay on HeLa cells (96 h, 28,314 at 5 µg/mL, read-out: IC50 Vinblastin); 0.11 ng/mL in the assay on HeLa cells (96 h, 28,314 at 10 µg/mL, read-out: IC50 Vinblastin); 0.09 ng/mL in the assay on HeLa cells (96 h, 28,314 at 20 µg/mL, read-out: IC50 Vinblastin).

In general, IC50 refers to the point on the concentration scale where inhibition reaches its midpoint.
